Assay: xn = mol fraction of the nth substance listed

CCCCCCCCCCCCCCCC[n+]1ccccc1.O=C([O-])C(O)c1ccccc1 + CC(C)C[C@H](N)C(=O)O + O
electrical conductivity [S/m], 101 kPa
Settings | 293.15 K | 298.15 K | 303.15 K | 308.15 K | 313.15 K
x1 = 9.1e-07, x2 = 0.001799 | 0.00171 | 0.00194 | 0.00216 | 0.0024 | 0.0027
x1 = 1.08e-06, x2 = 0 | 0.00061 | 0.00068 | 0.00076 | 0.00083 | 0.0009
x1 = 1.27e-06, x2 = 0.0009002 | 0.00143 | 0.0016 | 0.0018 | 0.002 | 0.0022
x1 = 1.98e-06, x2 = 0 | 0.001 | 0.0012 | 0.0013 | 0.0014 | 0.0016
x1 = 2.19e-06, x2 = 0.001799 | 0.00211 | 0.00239 | 0.00267 | 0.003 | 0.0033
x1 = 2.54e-06, x2 = 0.0009002 | 0.00187 | 0.00211 | 0.00235 | 0.0026 | 0.0029
x1 = 2.88e-06, x2 = 0 | 0.00147 | 0.0016 | 0.0018 | 0.002 | 0.0022
x1 = 3.1e-06, x2 = 0.001799 | 0.00244 | 0.00277 | 0.00309 | 0.0034 | 0.0038
x1 = 3.44e-06, x2 = 0.0009002 | 0.0022 | 0.00251 | 0.00278 | 0.0031 | 0.0034
x1 = 3.96e-06, x2 = 0 | 0.0019 | 0.0022 | 0.0024 | 0.0026 | 0.0029
x1 = 4.19e-06, x2 = 0.001799 | 0.00279 | 0.00316 | 0.00352 | 0.0039 | 0.0043
x1 = 4.69e-06, x2 = 0 | 0.0023 | 0.0026 | 0.0029 | 0.0031 | 0.0035
x1 = 4.71e-06, x2 = 0.0009002 | 0.00261 | 0.00294 | 0.00329 | 0.0036 | 0.004
x1 = 5.1e-06, x2 = 0.001799 | 0.00312 | 0.00353 | 0.00394 | 0.0044 | 0.0048
x1 = 5.95e-06, x2 = 0 | 0.00281 | 0.0032 | 0.0035 | 0.0038 | 0.0042
x1 = 5.98e-06, x2 = 0.0009002 | 0.00307 | 0.00345 | 0.00384 | 0.0043 | 0.0047
x1 = 6.74e-06, x2 = 0.001799 | 0.00363 | 0.0041 | 0.00457 | 0.0051 | 0.0056
x1 = 7.21e-06, x2 = 0 | 0.00341 | 0.0038 | 0.0042 | 0.0046 | 0.0051
x1 = 7.43e-06, x2 = 0.0009002 | 0.00352 | 0.00397 | 0.00441 | 0.0049 | 0.0054
x1 = 8.2e-06, x2 = 0.001799 | 0.00408 | 0.00463 | 0.00516 | 0.0057 | 0.0064
x1 = 8.7e-06, x2 = 0.0009002 | 0.00394 | 0.00445 | 0.00497 | 0.0055 | 0.0061
x1 = 8.83e-06, x2 = 0 | 0.00406 | 0.0046 | 0.005 | 0.0055 | 0.006
x1 = 9.84e-06, x2 = 0.001799 | 0.00451 | 0.00511 | 0.00572 | 0.0064 | 0.0071
x1 = 1.045e-05, x2 = 0 | 0.00469 | 0.0053 | 0.0058 | 0.0065 | 0.0071
x1 = 1.051e-05, x2 = 0.0009002 | 0.00444 | 0.00501 | 0.0056 | 0.0062 | 0.0069
x1 = 1.13e-05, x2 = 0.001799 | 0.00486 | 0.00551 | 0.00618 | 0.0069 | 0.0077
x1 = 1.196e-05, x2 = 0.0009002 | 0.00475 | 0.00538 | 0.006 | 0.0067 | 0.0075
x1 = 1.207e-05, x2 = 0 | 0.00516 | 0.0058 | 0.0064 | 0.0071 | 0.0079
x1 = 1.294e-05, x2 = 0.001799 | 0.00522 | 0.00591 | 0.00661 | 0.0074 | 0.0082
x1 = 1.323e-05, x2 = 0.0009002 | 0.00506 | 0.00573 | 0.0064 | 0.0071 | 0.0079
x1 = 1.351e-05, x2 = 0 | 0.00562 | 0.00631 | 0.007 | 0.0077 | 0.0085
x1 = 1.44e-05, x2 = 0.001799 | 0.00556 | 0.00629 | 0.00704 | 0.0079 | 0.0088
x1 = 1.468e-05, x2 = 0.0009002 | 0.00539 | 0.00609 | 0.0068 | 0.0076 | 0.0084
x1 = 1.478e-05, x2 = 0 | 0.00603 | 0.0068 | 0.0075 | 0.0083 | 0.0092
x1 = 1.585e-05, x2 = 0.001799 | 0.00586 | 0.00664 | 0.00743 | 0.0083 | 0.0092
x1 = 1.595e-05, x2 = 0.0009002 | 0.00568 | 0.00642 | 0.0072 | 0.008 | 0.0089
x1 = 1.622e-05, x2 = 0 | 0.00644 | 0.0072 | 0.008 | 0.0089 | 0.0098
x1 = 1.722e-05, x2 = 0.0009002 | 0.00598 | 0.00676 | 0.0075 | 0.0084 | 0.0093
x1 = 1.731e-05, x2 = 0.001799 | 0.00617 | 0.00698 | 0.00783 | 0.0087 | 0.0097
x1 = 1.766e-05, x2 = 0 | 0.00687 | 0.0077 | 0.0085 | 0.0094 | 0.0104

CC(=O)[O-].CCCC[N+](CCCC)(CCCC)CCCC + CCCCN + O
303.15 K, 100 kPa
Settings | viscosity [mPa·s]
x2 = 0, x3 = 0.0291 | 680
x2 = 0.0965, x3 = 0.0347 | 390
x2 = 0.194, x3 = 0.0301 | 188
x2 = 0.3198, x3 = 0.031 | 78
x2 = 0.4873, x3 = 0.0253 | 28
x2 = 0.6575, x3 = 0.0186 | 16
x2 = 0.7882, x3 = 0.0148 | 11
x2 = 0.8893, x3 = 0.0119 | 9

F[B-](F)(F)F.[Li+] + CC[n+]1ccn(C)c1.O=S(=O)([O-])C(F)(F)F
electrical conductivity [S/m], 101 kPa
Settings | x1 = 0.007746 | x1 = 0.01537 | x2 = 0.9648 | x2 = 0.9746
288.15 K | 0.628 | 0.59 | – | 0.537
298.15 K | 0.908 | 0.855 | 0.796 | 0.797
333.15 K | 2.25 | 2.19 | 2.06 | 2.07

O=[N+]([O-])[O-].[Li+] + CC[NH3+].O=[N+]([O-])[O-]
Settings | electrical conductivity [S/m] | viscosity [mPa·s]
223 K, 100 kPa, x1 = 0.09755 | 0.01 | –
223 K, 100 kPa, x1 = 0.1778 | 0.005 | –
233 K, 100 kPa, x1 = 0.09755 | 0.039 | –
233 K, 100 kPa, x1 = 0.1778 | 0.022 | –
243 K, 100 kPa, x1 = 0.09755 | 0.104 | –
243 K, 100 kPa, x1 = 0.1778 | 0.065 | –
253 K, 100 kPa, x1 = 0.09755 | 0.224 | –
253 K, 100 kPa, x1 = 0.1778 | 0.151 | –
263 K, 100 kPa, x1 = 0.09755 | 0.414 | –
263 K, 100 kPa, x1 = 0.1778 | 0.295 | –
273 K, 100 kPa, x1 = 0.09755 | 0.682 | –
273 K, 100 kPa, x1 = 0.1778 | 0.512 | –
283 K, 100 kPa, x1 = 0.09755 | 1.03 | –
283 K, 100 kPa, x1 = 0.1778 | 0.81 | –
288.15 K, 100 kPa, x1 = 0.09755 | – | 56.2
288.15 K, 100 kPa, x1 = 0.1778 | – | 68.6
293 K, 100 kPa, x1 = 0.09755 | 1.47 | –
293 K, 100 kPa, x1 = 0.1778 | 1.19 | –
293.15 K, 100 kPa, x1 = 0.09755 | – | 46.97
293.15 K, 100 kPa, x1 = 0.1778 | – | 56.13
298.15 K, 100 kPa, x1 = 0.09755 | – | 39.49
298.15 K, 100 kPa, x1 = 0.1778 | – | 46.25
298.15 K, 101 kPa, x2 = 0.8222 | – | 68.1
303 K, 100 kPa, x1 = 0.09755 | 1.99 | –
303 K, 100 kPa, x1 = 0.1778 | 1.67 | –
303.15 K, 100 kPa, x1 = 0.09755 | – | 33.4
303.15 K, 100 kPa, x1 = 0.1778 | – | 38.36
308.15 K, 100 kPa, x1 = 0.09755 | – | 28.4
308.15 K, 100 kPa, x1 = 0.1778 | – | 32.01
313 K, 100 kPa, x1 = 0.09755 | 2.58 | –
313 K, 100 kPa, x1 = 0.1778 | 2.22 | –
313.15 K, 100 kPa, x1 = 0.09755 | – | 24.27
313.15 K, 100 kPa, x1 = 0.1778 | – | 26.86
323 K, 100 kPa, x1 = 0.09755 | 3.23 | –
323 K, 100 kPa, x1 = 0.1778 | 2.86 | –
333 K, 100 kPa, x1 = 0.09755 | 3.95 | –
333 K, 100 kPa, x1 = 0.1778 | 3.58 | –
343 K, 100 kPa, x1 = 0.09755 | 4.73 | –
343 K, 100 kPa, x1 = 0.1778 | 4.36 | –
353 K, 100 kPa, x1 = 0.09755 | 5.54 | –
353 K, 100 kPa, x1 = 0.1778 | 5.21 | –
363 K, 100 kPa, x1 = 0.09755 | 6.4 | –
363 K, 100 kPa, x1 = 0.1778 | 6.11 | –
373 K, 100 kPa, x1 = 0.09755 | 7.29 | –
373 K, 100 kPa, x1 = 0.1778 | 7.06 | –

CCCC[N+](C)(C)C.O=S(=O)([N-]S(=O)(=O)C(F)(F)F)C(F)(F)F + CC(O)CO
101 kPa
Settings | viscosity [mPa·s]
323.15 K, x2 = 0 | 35.6
323.15 K, x2 = 0.8843 | 11.79
328.15 K, x2 = 0.1909 | 19.2
333.15 K, x2 = 0.3054 | 14.35
338.15 K, x2 = 0 | 22.1
338.15 K, x2 = 0.3054 | 12.44
338.15 K, x2 = 0.5274 | 9.87
338.15 K, x2 = 0.8149 | 7.45
343.15 K, x2 = 0 | 19.2
348.15 K, x2 = 0 | 16.81
348.15 K, x2 = 0.1909 | 11.32
348.15 K, x2 = 0.5274 | 7.89
348.15 K, x2 = 0.8149 | 5.76
353.15 K, x2 = 0.8149 | 5.53

c1ccncc1 + CCCC[n+]1ccn(C)c1.F[B-](F)(F)F
298.15 K, 101 kPa
Settings | electrical conductivity [S/m] | viscosity [mPa·s]
x1 = 0.1059 | 0.264 | 82
x1 = 0.2 | 0.347 | 58
x1 = 0.3028 | 0.456 | 39.2
x1 = 0.3969 | 0.601 | 26.4
x1 = 0.5033 | 0.792 | 16.4
x1 = 0.6063 | 1.01 | 9.9
x1 = 0.6873 | 1.17 | 6.39
x1 = 0.807 | 1.3 | 3.2

CC(C)=O + CC(=O)[O-].CC[NH2+]CC
Settings | viscosity [mPa·s]
298.15 K, 101 kPa, x2 = 0 | 0.309

COP(=O)([O-])OC.Cn1cc[n+](C)c1 + CC(C)O
101 kPa
Settings | viscosity [mPa·s]
293.15 K, x2 = 0 | 416
293.15 K, x2 = 0.0999 | 357
298.15 K, x2 = 0.2032 | 183
298.15 K, x2 = 0.5002 | 53.3
298.15 K, x2 = 0.7009 | 17.98
303.15 K, x2 = 0.5002 | 43.28
308.15 K, x2 = 0.7009 | 13.26
308.15 K, x2 = 0.9013 | 3.819
313.15 K, x2 = 0 | 119.2
313.15 K, x2 = 0.0999 | 106.6
313.15 K, x2 = 0.2032 | 82.2
313.15 K, x2 = 0.301 | 63.1
318.15 K, x2 = 0.2032 | 66.1
318.15 K, x2 = 0.5002 | 25.15
318.15 K, x2 = 0.7009 | 10.13
323.15 K, x2 = 0.5002 | 21.5
323.15 K, x2 = 0.9013 | 2.638

— the CheMixHub ionic liquid set
